From EP1247803A2, “Indolinone compounds suitable for modulation of protein kinases” (Sugen, Inc., priority 1996, dated 1998)

Legend:
EGFR = molecular target: T1, EGFR (Homo sapiens, UniProt P00533); assay: EGFR ELISA assay (in vitro kinase activity, EGFR captured from A431 cell lysate); type: biochemical; set-up: concentration or dose not given beside the values
T1 construct: Add 7 ug A431 cell lysate per well (EGFR source); endogenous in cells; host or cells: A431
Method in brief: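 Receptor autophosphorylation was read by ELISA: anti-phosphotyrosine serum and an HRP-linked secondary with ABTS substrate, absorbance at 410 nm (reference 630 nm). The reaction ran 5 min with 3 µM ATP and 5 mM MnCl2 and was quenched by 20 mM EDTA. Compounds were first incubated 30 min with antibody-captured EGFR from A431 cell lysate.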

PDGF-R = PDGF-R (Homo sapiens, UniProt P09619); assay: PDGF-R ELISA; type: cell-based
From the text: A PDGF-R ELISA is described in International Patent Publication No. WO 96/40116, published December 19, 1996 by Tang et al.

PDGF-R, sequence (P09619 33-1106, species assumed): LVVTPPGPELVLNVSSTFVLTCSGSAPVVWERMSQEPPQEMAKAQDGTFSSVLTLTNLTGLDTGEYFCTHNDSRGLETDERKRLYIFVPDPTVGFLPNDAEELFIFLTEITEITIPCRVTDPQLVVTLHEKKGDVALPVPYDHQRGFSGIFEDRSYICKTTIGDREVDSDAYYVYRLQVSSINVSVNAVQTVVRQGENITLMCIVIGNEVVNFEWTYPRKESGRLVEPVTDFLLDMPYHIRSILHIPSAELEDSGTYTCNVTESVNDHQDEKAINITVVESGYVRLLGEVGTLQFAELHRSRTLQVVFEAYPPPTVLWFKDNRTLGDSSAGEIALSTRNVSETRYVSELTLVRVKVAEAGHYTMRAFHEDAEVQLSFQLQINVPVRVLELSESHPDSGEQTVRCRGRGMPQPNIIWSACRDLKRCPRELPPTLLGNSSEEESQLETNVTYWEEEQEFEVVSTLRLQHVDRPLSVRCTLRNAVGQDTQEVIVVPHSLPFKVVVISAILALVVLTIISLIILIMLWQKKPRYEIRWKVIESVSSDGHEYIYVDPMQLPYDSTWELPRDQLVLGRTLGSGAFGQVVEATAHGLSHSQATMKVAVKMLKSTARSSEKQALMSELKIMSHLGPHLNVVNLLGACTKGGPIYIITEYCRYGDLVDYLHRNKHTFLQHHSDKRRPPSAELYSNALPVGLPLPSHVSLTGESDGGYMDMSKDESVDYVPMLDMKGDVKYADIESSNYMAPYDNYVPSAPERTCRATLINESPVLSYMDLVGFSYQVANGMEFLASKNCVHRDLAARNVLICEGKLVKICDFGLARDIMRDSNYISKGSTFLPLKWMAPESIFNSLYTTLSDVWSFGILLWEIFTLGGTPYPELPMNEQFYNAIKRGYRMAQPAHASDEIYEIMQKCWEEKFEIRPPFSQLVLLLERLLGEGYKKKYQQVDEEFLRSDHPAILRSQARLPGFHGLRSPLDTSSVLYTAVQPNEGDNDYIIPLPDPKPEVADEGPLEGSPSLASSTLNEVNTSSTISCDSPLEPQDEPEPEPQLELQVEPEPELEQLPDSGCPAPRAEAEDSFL
T1 sequence (P00533 25-1210): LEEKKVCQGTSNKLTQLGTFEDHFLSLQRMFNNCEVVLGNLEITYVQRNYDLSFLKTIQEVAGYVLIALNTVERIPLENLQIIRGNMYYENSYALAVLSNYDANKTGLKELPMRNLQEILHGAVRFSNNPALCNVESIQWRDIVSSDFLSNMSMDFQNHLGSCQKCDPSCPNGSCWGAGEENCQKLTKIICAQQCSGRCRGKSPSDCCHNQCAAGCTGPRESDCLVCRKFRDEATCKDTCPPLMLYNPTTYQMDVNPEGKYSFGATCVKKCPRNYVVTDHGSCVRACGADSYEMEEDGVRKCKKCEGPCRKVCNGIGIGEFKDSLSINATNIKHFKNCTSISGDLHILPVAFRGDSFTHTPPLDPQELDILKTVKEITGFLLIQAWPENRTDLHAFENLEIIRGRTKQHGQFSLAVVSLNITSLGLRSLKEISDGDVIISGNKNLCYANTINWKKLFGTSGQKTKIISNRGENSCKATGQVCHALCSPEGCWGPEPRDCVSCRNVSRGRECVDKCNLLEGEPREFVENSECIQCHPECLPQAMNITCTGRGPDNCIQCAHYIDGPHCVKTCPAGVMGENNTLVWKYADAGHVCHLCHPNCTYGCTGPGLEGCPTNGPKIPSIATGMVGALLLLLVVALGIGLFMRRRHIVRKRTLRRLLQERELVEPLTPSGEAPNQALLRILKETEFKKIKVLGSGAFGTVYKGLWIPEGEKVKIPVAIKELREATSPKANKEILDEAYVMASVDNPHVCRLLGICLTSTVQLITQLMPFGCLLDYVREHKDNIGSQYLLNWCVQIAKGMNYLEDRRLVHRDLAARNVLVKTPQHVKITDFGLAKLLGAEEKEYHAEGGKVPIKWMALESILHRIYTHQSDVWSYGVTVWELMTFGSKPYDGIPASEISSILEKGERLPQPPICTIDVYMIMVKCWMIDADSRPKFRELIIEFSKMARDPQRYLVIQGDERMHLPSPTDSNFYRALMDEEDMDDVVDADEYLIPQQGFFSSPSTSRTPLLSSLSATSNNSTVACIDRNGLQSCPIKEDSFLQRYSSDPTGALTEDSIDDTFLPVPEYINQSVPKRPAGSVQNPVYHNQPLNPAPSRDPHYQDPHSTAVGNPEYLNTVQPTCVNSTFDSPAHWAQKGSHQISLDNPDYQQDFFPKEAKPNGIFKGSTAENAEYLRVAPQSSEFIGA

SMILES | Biochem EGFR %Inhibition (EGFR) | PDGF Kinase %Inhibition (PDGF-R)
Cc1ccc(C=C2C(=O)Nc3c(Br)cc(Br)cc32)s1 [10717/A07] | 20.2% | 
Cc1c(O)ccc(C=C2C(=O)Nc3c(Br)cc(Br)cc32)c1O [10718/A09] | -4.1% | 
O=C1Nc2c(Br)cc(Br)cc2C1=Cc1ccco1 [10718/A10] | 41.5% | 
O=C1Nc2c(Br)cc(Br)cc2C1=Cc1ccc([N+](=O)[O-])o1 [10718/A11] | 21.2% | 
CCOC(=O)c1c(C)[nH]c(C=C2C(=O)Nc3ccc(I)cc32)c1C [10718/B02] | 24.9% | 
COc1cc(Br)c(O)c(C=C2C(=O)Nc3ccc(I)cc32)c1 [10718/B03] | -0.2% | 
O=C1Nc2ccc(I)cc2C1=Cc1ccc2ccccc2c1O [10718/B04] | 8.5% | 
CCOC(=O)c1cc(C=C2C(=O)Nc3ccc(I)cc32)oc1C [10718/B06] | 28.5% | 
CNS(=O)(=O)c1ccc2c(c1)C(=Cc1cccc(C(F)(F)F)c1F)C(=O)N2 [10728/D07] | 2.4% | 2.3%
CNS(=O)(=O)c1ccc2c(c1)C(=Cc1cc(C(F)(F)F)ccc1F)C(=O)N2 [10728/D08] | 6.9% | 2.7%
CNS(=O)(=O)c1ccc2c(c1)C(=Cc1c(F)cccc1C(F)(F)F)C(=O)N2 [10728/D09] | -2.9% | -3.9%
CNS(=O)(=O)c1ccc2c(c1)C(=Cc1ccccc1OCC(=O)O)C(=O)N2 [10728/D10] | 18.6% | -3.9%
CNS(=O)(=O)c1ccc2c(c1)C(=Cc1cc(OC)c3c(c1)OCO3)C(=O)N2 [10728/D11] | 22.1% | -10.2%
COc1ccc(OC)c(C=C2C(=O)Nc3ccc(S(=O)(=O)Nc4ccc(C(F)(F)F)cc4)cc32)c1 [10728/E02] | 7.4% | 15.2%
COc1cccc(OC)c1C=C1C(=O)Nc2ccc(S(=O)(=O)Nc3ccc(C(F)(F)F)cc3)cc21 [10728/E03] | 9.5% | 12.0%
COc1cc(C=C2C(=O)Nc3ccc(S(=O)(=O)Nc4ccc(C(F)(F)F)cc4)cc32)cc(OC)c1 [10728/E04] | 10.1% | 23.2%
COc1cc(N(C)C)ccc1C=C1C(=O)Nc2ccc(S(=O)(=O)Nc3ccc(C(F)(F)F)cc3)cc21 [10728/E05] | 7.4% | 5.8%
O=C1Nc2ccc(S(=O)(=O)Nc3ccc(C(F)(F)F)cc3)cc2C1=Cc1ccc2c(c1)Cc1ccccc1-2 [10728/E06] | -4.7% | 12.0%
O=C1Nc2ccc(S(=O)(=O)Nc3ccc(C(F)(F)F)cc3)cc2C1=Cc1cccc(C(F)(F)F)c1F [10728/E07] | 21.8% | 28.0%
O=C1Nc2ccc(S(=O)(=O)Nc3ccc(C(F)(F)F)cc3)cc2C1=Cc1cc(C(F)(F)F)ccc1F [10728/E08] | 5.1% | 29.4%
O=C1Nc2ccc(S(=O)(=O)Nc3ccc(C(F)(F)F)cc3)cc2C1=Cc1c(F)cccc1C(F)(F)F [10728/E09] | 0.1% | 22.3%
O=C(O)COc1ccccc1C=C1C(=O)Nc2ccc(S(=O)(=O)Nc3ccc(C(F)(F)F)cc3)cc21 [10728/E10] | -20.8% | 13.8%

SMILES | Biochem EGFR %Inhibition (EGFR) | PDGF Kinase %Inhibition (PDGF-R)
COc1cc(C=C2C(=O)Nc3ccc(S(=O)(=O)Nc4ccc(C(F)(F)F)cc4)cc32)cc2c1OCO2 [10728/E11] | -5.9% | 8.9%
COc1ccc(OC)c(C=C2C(=O)Nc3ccc(S(=O)(=O)NN4CCOCC4)cc32)c1 [10728/F02] | 4.4% | 7.2%
COc1ccc(OC)c(C=C2C(=O)Nc3ccc(CCCl)cc32)c1 [10728/G02] | -10.2% | 0.9%
COc1cccc(OC)c1C=C1C(=O)Nc2ccc(CCCl)cc21 [10728/G03] | -2.0% | -8.4%
COc1cc(C=C2C(=O)Nc3ccc(CCCl)cc32)cc(OC)c1 [10728/G04] | -8.2% | 0.5%
COc1cc(N(C)C)ccc1C=C1C(=O)Nc2ccc(CCCl)cc21 [10728/G05] | 7.2% | -4.4%
O=C1Nc2ccc(CCCl)cc2C1=Cc1ccc2c(c1)Cc1ccccc1-2 [10728/G06] | -14.1% | -13.3%
O=C1Nc2ccc(CCCl)cc2C1=Cc1cccc(C(F)(F)F)c1F [10728/G07] | -12.3% | -17.3%
O=C1Nc2ccc(CCCl)cc2C1=Cc1cc(C(F)(F)F)ccc1F [10728/G08] | -5.7% | -11.9%
O=C1Nc2ccc(CCCl)cc2C1=Cc1c(F)cccc1C(F)(F)F [10728/G09] | -8.0% | 6.3%
O=C(O)COc1ccccc1C=C1C(=O)Nc2ccc(CCCl)cc21 [10728/G10] | -12.5% | -0.8%
COc1cc(C=C2C(=O)Nc3ccc(CCCl)cc32)cc2c1OCO2 [10728/G11] | 16.1% | -12.8%
COc1ccc2ccccc2c1C=C1C(=O)Nc2c(Br)cc(Br)cc21 [10729/A02] | 10.0% | -25.7%
COc1ccc(C=C2C(=O)Nc3c(Br)cc(Br)cc32)c2ccccc12 [10729/A03] | 27.0% | 1.9%
CSc1ccc(C=C2C(=O)Nc3c(Br)cc(Br)cc32)cc1 [10729/A04] | 58.8% | -16.6%
Cc1ccsc1C=C1C(=O)Nc2c(Br)cc(Br)cc21 [10729/A05] | 23.4% | -6.8%
O=C1Nc2c(Br)cc(Br)cc2C1=Cc1cccc(Oc2ccccc2)c1 [10729/A06] | 36.5% | -8.6%
O=C1Nc2c(Br)cc(Br)cc2C1=Cc1ccccn1 [10729/A07] | 49.0% | -36.7%
O=C1Nc2c(Br)cc(Br)cc2C1=Cc1cccnc1 [10729/A08] | 37.8% | -23.4%
O=C1Nc2c(Br)cc(Br)cc2C1=Cc1ccncc1 [10729/A09] | 25.7% | 11.0%
O=C1Nc2c(Br)cc(Br)cc2C1=Cc1ccc(N2CCCC2)cc1 [10729/A10] | 28.7% | -12.8%
O=C1Nc2c(Br)cc(Br)cc2C1=CC1C=CCCC1 (stereo not drawn) [10729/A11] | 15.5% | -11.7%

SMILES | Biochem EGFR %Inhibition (EGFR) | PDGF Kinase %Inhibition (PDGF-R)
COc1ccc2ccccc2c1C=C1C(=O)Nc2ccc(I)cc21 [10729/B02] | 34.9% | -10.2%
COc1ccc(C=C2C(=O)Nc3ccc(I)cc32)c2ccccc12 [10729/B03] | 38.2% | -9.4%
CSc1ccc(C=C2C(=O)Nc3ccc(I)cc32)cc1 [10729/B04] | 63.7% | -22.7%
Cc1ccsc1C=C1C(=O)Nc2ccc(I)cc21 [10729/B05] | 50.6% | -25.7%
O=C1Nc2ccc(I)cc2C1=Cc1cccc(Oc2ccccc2)c1 [10729/B06] | 56.9% | -19.2%
O=C1Nc2ccc(I)cc2C1=Cc1ccccn1 [10729/B07] | 69.0% | -33.2%
O=C1Nc2ccc(I)cc2C1=Cc1cccnc1 [10729/B08] | 53.2% | -13.6%
O=C1Nc2ccc(I)cc2C1=Cc1ccncc1 [10729/B09] | 51.6% | -6.4%
O=C1Nc2ccc(I)cc2C1=Cc1ccc(N2CCCC2)cc1 [10729/B10] | 68.3% | -13.9%
O=C1Nc2ccc(I)cc2C1=CC1C=CCCC1 (stereo not drawn) [10729/B11] | 18.8% | 4.2%
COc1ccc2ccccc2c1C=C1C(=O)Nc2ccc(Br)c(C)c21 [10729/C02] | 16.9% | 9.1%
COc1ccc(C=C2C(=O)Nc3ccc(Br)c(C)c32)c2ccccc12 [10729/C03] | 25.7% | 13.7%
CSc1ccc(C=C2C(=O)Nc3ccc(Br)c(C)c32)cc1 [10729/C04] | 35.9% | 4.2%
Cc1ccsc1C=C1C(=O)Nc2ccc(Br)c(C)c21 [10729/C05] | 21.8% | -5.6%
Cc1c(Br)ccc2c1C(=Cc1cccc(Oc3ccccc3)c1)C(=O)N2 [10729/C06] | 38.2% | 3.1%
Cc1c(Br)ccc2c1C(=Cc1ccccn1)C(=O)N2 [10729/C07] | 60.8% | -1.8%
Cc1c(Br)ccc2c1C(=Cc1cccnc1)C(=O)N2 [10729/C08] | 25.4% | -13.6%
Cc1c(Br)ccc2c1C(=Cc1ccncc1)C(=O)N2 [10729/C09] | 33.2% | -34.8%
Cc1c(Br)ccc2c1C(=Cc1ccc(N3CCCC3)cc1)C(=O)N2 [10729/C10] | 45.7% | 3.5%
Cc1c(Br)ccc2c1C(=CC1C=CCCC1)C(=O)N2 (stereo not drawn) [10729/C11] | 35.9% | -17.4%
